Test results from US20240217990A1 (Gilead Sciences, Inc., priority 2021, published 2024).

Legend:
TLR8 = target: T1, TLR8 (Homo sapiens, UniProt Q9NR97); test: TLR8 human PBMC cell-based assay (antagonist, Compound A stimulated cytokine release); details: human PBMCs; TLR8 agonist Compound A 800 nM, 6 hours; cytokines (TNFa and IL 12p40) in supernatant; read-out: TLR-8 EC50
T1 construct: Human peripheral blood mononuclear cells (PBMCs) consist of lymphocytes, monocytes and dendritic cells that express TLR7, TLR8 and TLR9; endogenous in cells; host or cells: cryopreserved human PBMCs from healthy donors
T1 sequence (Q9NR97 27-1041): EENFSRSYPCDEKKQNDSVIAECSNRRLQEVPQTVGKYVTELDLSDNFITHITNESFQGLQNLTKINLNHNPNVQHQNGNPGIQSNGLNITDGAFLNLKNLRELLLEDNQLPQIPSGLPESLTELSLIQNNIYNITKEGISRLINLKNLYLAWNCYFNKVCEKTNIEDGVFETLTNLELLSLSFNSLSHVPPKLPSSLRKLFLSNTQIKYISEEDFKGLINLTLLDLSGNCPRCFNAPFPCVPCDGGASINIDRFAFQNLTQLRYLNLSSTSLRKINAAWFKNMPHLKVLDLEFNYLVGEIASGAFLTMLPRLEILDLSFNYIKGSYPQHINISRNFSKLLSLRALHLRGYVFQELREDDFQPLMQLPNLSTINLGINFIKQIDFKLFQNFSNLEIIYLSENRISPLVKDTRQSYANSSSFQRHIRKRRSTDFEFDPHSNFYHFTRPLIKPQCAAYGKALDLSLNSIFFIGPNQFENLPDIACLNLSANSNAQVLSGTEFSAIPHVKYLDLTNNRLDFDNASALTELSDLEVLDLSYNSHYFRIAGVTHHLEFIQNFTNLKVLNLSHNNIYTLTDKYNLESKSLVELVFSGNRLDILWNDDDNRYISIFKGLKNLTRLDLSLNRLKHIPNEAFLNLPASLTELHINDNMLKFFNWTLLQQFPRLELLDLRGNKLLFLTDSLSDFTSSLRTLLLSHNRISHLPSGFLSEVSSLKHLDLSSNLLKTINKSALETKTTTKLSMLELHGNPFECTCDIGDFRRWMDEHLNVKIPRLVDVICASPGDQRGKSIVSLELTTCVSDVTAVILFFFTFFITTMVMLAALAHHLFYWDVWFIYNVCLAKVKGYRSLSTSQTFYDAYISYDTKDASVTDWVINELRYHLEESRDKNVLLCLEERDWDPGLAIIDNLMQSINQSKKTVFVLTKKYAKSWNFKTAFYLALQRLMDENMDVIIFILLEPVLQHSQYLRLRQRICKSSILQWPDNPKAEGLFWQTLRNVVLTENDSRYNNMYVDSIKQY
Summary of the method: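 Cryopreserved donor PBMCs (100,000/well, RPMI + 10% FBS) were preincubated 1 h with antagonist (10-point dose response, quadruplicate), then stimulated with Compound A (800 nM final) for 6 h at 37 °C. TNFa and IL-12p40 in supernatants were measured by electrochemiluminescence; sigmoidal fits gave EC50.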

TLR7 = target: T2, TLR7 (Homo sapiens, UniProt Q9NYK1); test: TLR7 human PBMC cell-based assay (antagonist, GS-986 stimulated cytokine release); details: human PBMCs; TLR7 agonist GS-986 400 nM, 6 hours; cytokines (IL-6 and IFNα) in supernatant; read-out: TLR-7 EC50
T2 construct: Human peripheral blood mononuclear cells (PBMCs) consist of lymphocytes, monocytes and dendritic cells that express TLR7, TLR8 and TLR9; endogenous in cells; host or cells: cryopreserved human PBMCs from healthy donors
T2 sequence (Q9NYK1 27-1049): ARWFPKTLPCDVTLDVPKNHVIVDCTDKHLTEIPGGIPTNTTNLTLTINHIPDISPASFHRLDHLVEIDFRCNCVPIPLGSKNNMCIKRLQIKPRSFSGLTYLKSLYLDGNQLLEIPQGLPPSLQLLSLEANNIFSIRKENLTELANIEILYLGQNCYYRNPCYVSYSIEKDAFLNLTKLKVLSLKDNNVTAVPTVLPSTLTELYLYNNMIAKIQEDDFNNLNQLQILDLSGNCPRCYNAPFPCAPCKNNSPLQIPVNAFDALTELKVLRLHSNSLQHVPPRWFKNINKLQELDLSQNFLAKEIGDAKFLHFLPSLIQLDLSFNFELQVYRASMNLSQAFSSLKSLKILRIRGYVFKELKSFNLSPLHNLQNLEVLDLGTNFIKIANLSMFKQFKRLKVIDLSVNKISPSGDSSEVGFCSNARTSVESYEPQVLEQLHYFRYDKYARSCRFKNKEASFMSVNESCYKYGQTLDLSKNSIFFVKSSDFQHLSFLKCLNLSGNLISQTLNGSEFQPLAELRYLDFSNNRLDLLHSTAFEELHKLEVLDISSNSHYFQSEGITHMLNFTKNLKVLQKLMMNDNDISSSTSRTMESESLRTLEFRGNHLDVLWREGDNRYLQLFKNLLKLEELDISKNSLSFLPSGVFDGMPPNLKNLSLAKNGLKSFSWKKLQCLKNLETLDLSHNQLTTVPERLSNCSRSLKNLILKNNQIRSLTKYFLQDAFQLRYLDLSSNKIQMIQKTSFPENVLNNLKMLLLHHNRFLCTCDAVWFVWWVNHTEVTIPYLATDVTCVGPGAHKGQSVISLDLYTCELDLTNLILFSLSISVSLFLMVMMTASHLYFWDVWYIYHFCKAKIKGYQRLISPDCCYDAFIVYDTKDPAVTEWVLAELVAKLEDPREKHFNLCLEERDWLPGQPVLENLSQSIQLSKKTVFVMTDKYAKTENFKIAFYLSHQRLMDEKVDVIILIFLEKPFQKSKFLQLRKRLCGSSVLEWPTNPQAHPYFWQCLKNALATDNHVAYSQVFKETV
Summary of the method: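 EC50 derived by sigmoidal fitting of IL-6 and IFNα levels, quantified by electrochemiluminescence in supernatants of human PBMCs given 400 nM GS-986 for 6 h. Cells (100,000/well in RPMI-1640, 10% FBS) had received test antagonist 1 h beforehand, 10 doses in quadruplicate, at 37 °C.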

SMILES	EC50 (TLR8) [nM]	EC50 (TLR7) [nM]
Cc1cc(-c2[nH]c3cc(C(=O)N(C)C4CCC(N5CC(F)C5)CC4)sc3c2C(C)C)cn2ncnc12 (stereo not shown) [Example 250]	11	6.6
Cc1cc(-c2[nH]c3cc(C(=O)N4CCC5(CCNC5)C4)sc3c2C(C)C)cc(C)n1 (stereo not shown) [Example 14]	586	311
Cc1cc(-c2[nH]c3cc(C(=O)N4CCN[C@H](C)C4)sc3c2C(C)C)cn2ncnc12 [Example 128]	0.8	1.1
COc1cc(-c2[nH]c3cc(-c4cnc5c(c4)CNCC5)sc3c2C(C)C)cn2ncnc12 [Example 224]	0.3	0.4
Cc1cc(-c2[nH]c3cc(C4CCC(N5CCC(OC(F)F)C5)CC4)sc3c2C(C)C)cn2ncnc12 (stereo not shown) [Example 258]	11.9	2.3
Cc1cc(-c2[nH]c3cc(C(=O)N4CCC[C@@H]4CN(C)C)sc3c2C(C)C)cn2ncnc12 [Example 104]	10.6	7.8
Cc1cc(-c2[nH]c3cc(C4CC5(CCNCC5)C4)sc3c2C(C)C)cn2ncnc12 [Example 308]	3.46	0.28
Cc1c(-c2[nH]c3cc(C4CCN(CC(N)=O)CC4)sc3c2C(C)C)ccc2nn(C)c(=O)n12 [Example 286]	172	> 1000
Cc1cc(-c2[nH]c3cc(C4CCNC5(CCC5)C4)sc3c2C(C)C)cn2ncnc12 (stereo not shown) [Example 296]	8.2	3.76
Cc1cc(-c2[nH]c3cc(C(=O)N(C)[C@@H]4CNC[C@H](C(F)(F)F)C4)sc3c2C(C)C)cn2ncnc12 [Example 276]	16.3	2.7
Cc1cc(-c2[nH]c3cc(C(=O)N(C)C4CCC(N5CC6(COC6)C5)CC4)sc3c2C(C)C)cn2ncnc12 (stereo not shown) [Example 253]	8.5	7.5
Cc1cc(-c2[nH]c3cc(-c4nc5ccncc5[nH]4)sc3c2C(C)C)cn2ncnc12 [Example 236]	14.2	18.6
Cc1cc(-c2[nH]c3cc(-c4nc5ccccc5[nH]4)sc3c2C(C)C)cn2ncnc12 [Example 235, 2-(1H-benzo[d]imidazol-2-yl)-6-isopropyl-5-(8-methyl-[1,2,4]triazolo[1,5-a]pyridin-6-yl)-4H-thieno[3,2-b]pyrrole]	114	110
Cc1cc(-c2[nH]c3cc(C4CCN(C(=O)[C@H]5COCCN5)CC4)sc3c2C(C)C)cn2ncnc12 [Example 292]	7.93	0.3
Cc1cc(-c2[nH]c3cc(C(=O)N(C)[C@H]4CCNC4)sc3c2C(C)C)cn2ncnc12 [Example 39]	11.2	0.6
Cc1cc(-c2[nH]c3cc(C(=O)N(C)C4CCN(CCC#N)CC4)sc3c2C(C)C)cn2ncnc12 [Example 183]	32.4	17.5
Cc1cc(-c2[nH]c3cc(C4CCN(CC(N)=O)CC4)sc3c2C(C)C)cn2ncnc12 [Example 164, 2-[4-[6-isopropyl-5-(8-methyl-[1,2,4]triazolo[1,5-a]pyridin-6-yl)-4H-thieno[3,2-b]pyrrol-2-yl]-1-piperidyl]acetamide]	2.8	1.5
Cc1cc(-c2[nH]c3cc(C(=O)N(C)[C@H]4CNC[C@H]4F)sc3c2C(C)C)cn2ncnc12 [Example 61]	17.4	7.9

The remaining compounds from weak to strong by EC50 (TLR8), led by results:

EC50 (TLR8) [nM]	EC50 (TLR7) [nM]	SMILES
37	29.8	Cc1cc(-c2[nH]c3cc(C(=O)N(C)[C@H]4CCNC4)sc3c2C(C)C)cn(C)c1=O [Example 36]
25.8	0.3	Cc1cc(-c2[nH]c3cc(C(=O)N4C[C@@H](N)CC[C@H]4C)sc3c2C(C)C)cn2ncnc12 [Example 96]
18.2	1.4	Cc1cc(-c2[nH]c3cc(C(=O)N4CCCC5CNCC54)sc3c2C(C)C)cn2ncnc12 (stereo not shown) [Example 109]
17.5	14.3	Cc1cc(-c2[nH]c3cc(C(=O)N(CCN(C)C)C4CCCC4)sc3c2C(C)C)cn2ncnc12 [Example 98]
15.4	24.1	Cc1cc(-c2[nH]c3cc(C(=O)N4C[C@H](N)C[C@H](C(F)(F)F)C4)sc3c2C(C)C)cn2ncnc12 [Example 59]
12.4	9.6	Cc1cc(-c2[nH]c3cc(C4CCNC4)sc3c2C(C)C)cn2ncnc12 (stereo not shown) [Example 161]
11.2	9.6	Cc1cc(-c2[nH]c3cc(C(=O)N(C)C4CCC(N5CC6(C5)CS(=O)(=O)C6)CC4)sc3c2C(C)C)cn2ncnc12 (stereo not shown) [Example 252]
10.8	15	Cc1cc(-c2[nH]c3cc(C(=O)N(C)C4CCN(C5COC5)CC4)sc3c2C(C)C)cn2ncnc12 [Example 139]
10.5	2.8	Cc1cc(-c2[nH]c3cc(C(=O)N4CCNC[C@@H]4C)sc3c2C(C)C)cn2ncnc12 [Example 149]
9.9	1	Cc1cc(-c2[nH]c3cc(C(=O)N4CCC5CCNC5C4)sc3c2C(C)C)cn2ncnc12 (stereo not shown) [Example 90]
9.6	0.4	Cc1cc(-c2[nH]c3cc(C4CCC(N5CCC(O)C5)CC4)sc3c2C(C)C)cn2ncnc12 (stereo not shown) [Example 257]
8.4	8.1	Cc1cc(-c2[nH]c3cc(-c4cccc(N5CCNCC5)c4)sc3c2C(C)C)cn2ncnc12 [Example 234]
4.8	8	Cc1cc(-c2[nH]c3cc(-c4cnc5c(c4)CN(CC(N)=O)CC5)sc3c2C(C)C)cn2ncnc12 [Example 173]
1.8	0.2	Cc1cc(-c2[nH]c3cc(C4CCC(N5CCC(F)C5)CC4)sc3c2C(C)C)cn2ncnc12 (stereo not shown) [Example 256, 2-(4-(3-fluoropyrrolidin-1-yl)cyclohexyl)-6-isopropyl-5-(8-methyl-[1,2,4]triazolo[1,5-a]pyridin-6-yl)-4H-thieno[3,2-b]pyrrole]
1.2	2.1	Cc1c(-c2[nH]c3cc(C(=O)N4CCNCC4)sc3c2C(C)C)cn2ncnc2c1C [Example 32]
1.1	1.9	CN[C@@H]1CCN(C(=O)c2cc3[nH]c(-c4cc(C)c5ncnn5c4)c(C(C)C)c3s2)C1 [Example 72]
0.5	1.9	Cc1cc(-c2[nH]c3cc(-c4ccc5c(c4)CNCC5)sc3c2C(C)C)cn2ncnc12 [Example 211]
